# According to article PMC4916434, “Evaluation of the inhibition potential of plumbagin against cytochrome P450 using LC-MS/MS and cocktail approach” (Scientific Reports, 2016):
# Experiments:
# Type in all cases: in vitro ADME
# [1] = target: T1, CYP2C9 (Homo sapiens, UniProt P11712); assay: CYP2C9 inhibition (tolbutamide methyl-hydroxylation) in pooled human liver microsomes, cocktail LC-MS/MS
# T1 construct: consisting of pooled HLMs (0.5 mg/ml) or RLMs (1 mg/ml) and an NADPH-regenerating system; tissue Corning Gentest Corporation; host or cells: pooled human liver microsomes (n = 20)
# Protocol: (§1) Microsomal incubation was carried out at 37 °C in a mixture of 200 μl in 0.05 M Tris/HCl buffer (pH 7.4) consisting of pooled HLMs (0.5 mg/ml) or RLMs (1 mg/ml) and an NADPH-regenerating system including MgCl2 (5 mM), G6P (10 mM), G6PDH (0.4 U/ml) and NADP (1 mM). Substrates were added into the incubation mixture and obtained the final concentrations (10 μM phenacetin for CYP1A2, 20 μM bupropion for CYP2B1/6, 20 μM tolbutamide for CYP2C9/11, 5 μM dextromethorphan for CYP2D1/6, 20 μM chlorzoxazone for CYP2E1 and 10 μM midazolam for CYP3A2/4), which were close to Km respectively. The proportion of organic solvent was not higher than 1% (v/v) in the incubation mixture. After pre-incubation for 5 min, the reaction was initiated by addition of NADP. Incubations were performed for 20 min, stopped by adding 200 μl ice-cold acetonitrile. And then 20 μl internal standard solution was added (3-acetamidophenol 2 μg/ml, chlorpropamide 2 μg/ml and mebendazole 2 μg/ml). The solution was mixed thoroughly for 3 min and centrifuged for 10 min at 16,000 × g at 4 °C. The supernatant (60 μl) was transferred to autosampler vials, and 2 μl was injected into LC-MS/MS system.
# (§2) The IC50 (concentration of inhibitor to cause 50% inhibition of original enzyme activity) values were determined with the same incubation condition above. The specific concentrations of plumbagin were ranged from 0.1 μM to 50 μM. The IC50 values were calculated by plotting relative activities over the logarithm of plumbagin concentrations using GraphPad Prism 5.0 (GraphPad software Inc., CA, USA).
# (§3) Cocktail probe substrates were then added and incubated for 20 min. Reactions were stopped with 200 μl ice-cold acetonitrile. The samples were treated according to the microsomal incubation method and then injected into LC-MS/MS for analysis.
# (§4) Kinetic studies were performed for determining the types of inhibition on CYP by plumbagin. Pooled HLMs (0.5 mg/ml) or RLMs (1 mg/ml) with plumbagin (1 μM, 2 μM, 5 μM and 10 μM) were incubated in 0.05 M Tris/HCl buffer (pH 7.4) for 20 min at 37 °C. A series of concentrations for cocktail probe substrates were used: 2.5–20 μM phenacetin for CYP1A2; 5–40 μM bupropion for CYP2B1/6; 5–40 μM tolbutamide for CYP2C9/11; 1.25–10 μM dextromethorphan for CYP2D1/6; 5–40 μM chlorzoxazone for CYP2E1; 2.5–80 μM midazolam for CYP3A2; and 0.625–5 μM midazolam for CYP3A4. Enzyme kinetics as well as statistical analysis were performed using GraphPad Prism 5.0.
# (§5) All data were presented as mean ± SD. The IC50 values were fitted by non-linear regression analysis using GraphPad Prism 5.0. The kinetic parameters were obtained by fitting velocity data to kinetic models (Michaelis-Menten) using GraphPad Prism 5.0. The Lineweaver-Burk Plot (the reciprocal of reaction velocities versus the reciprocal of substrates concentrations) was used to determine the quality of fit to a specific inhibition model. The inhibition constant (Ki) was obtained by a secondary plot using the slopes of the primary Lineweaver-Burk Plot (Km/Vmax versus inhibitor concentrations). αKi was obtained from a secondary plot using the y-intercepts of the Lineweaver-Burk plot (1/Vmax versus inhibitor concentrations). All results were analyzed in quadruplicate. One-way analysis of variance was used to estimate the significance of differences. There was statistical significance between control and test groups if p < 0.05.
# [2] = target: T2, CYP2D6 (Homo sapiens, UniProt P10635); assay: CYP2D6 inhibition (dextromethorphan O-demethylation) in pooled human liver microsomes, cocktail LC-MS/MS
# T2 construct: consisting of pooled HLMs (0.5 mg/ml) or RLMs (1 mg/ml) and an NADPH-regenerating system; tissue Corning Gentest Corporation; host or cells: pooled human liver microsomes (n = 20)
# Protocol: as §1, §2, §3, §4, §5
# [3] = target: T3, CYP2B1 (Rattus norvegicus, UniProt P00176)
# T3 construct: consisting of pooled HLMs (0.5 mg/ml) or RLMs (1 mg/ml) and an NADPH-regenerating system; from tissue; host or cells: rat liver microsomes prepared in house
# T3 sequence (P00176 1-491): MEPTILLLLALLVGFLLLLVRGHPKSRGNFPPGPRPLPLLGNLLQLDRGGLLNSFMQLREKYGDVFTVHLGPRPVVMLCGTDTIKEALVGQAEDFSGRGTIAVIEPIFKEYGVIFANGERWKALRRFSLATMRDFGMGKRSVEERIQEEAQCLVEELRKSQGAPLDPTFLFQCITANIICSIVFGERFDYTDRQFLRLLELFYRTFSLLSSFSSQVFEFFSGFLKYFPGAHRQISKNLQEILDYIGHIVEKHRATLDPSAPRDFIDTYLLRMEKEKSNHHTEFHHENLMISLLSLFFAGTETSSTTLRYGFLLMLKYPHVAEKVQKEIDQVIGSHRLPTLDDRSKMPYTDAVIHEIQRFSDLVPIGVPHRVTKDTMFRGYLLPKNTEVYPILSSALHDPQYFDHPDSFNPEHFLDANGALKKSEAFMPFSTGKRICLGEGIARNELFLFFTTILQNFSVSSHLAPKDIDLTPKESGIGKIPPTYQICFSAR
# Protocol: In this study, the rats were fasted overnight and killed by cervical dislocation before removal of the liver. The liver was excised, rinsed with ice-cold saline (0.9% NaCl w/v), weighed and homogenized in a […] Tris/KCl buffer (pH 7.4). Subsequently, the homogenate was centrifuged at 10,000 × g at 4 °C for 30 min. The supernatant was then centrifuged at 105,000 × g at 4 °C for 60 min. The pellet was reconstituted with […] Tris/KCl buffer (pH 7.4) and stored at −150 °C until use. The protein concentration of the liver microsomes was determined by a protein quantitative assay using bicinchoninic acid[22].
# as §1, §2, §3, §4
# as §5, with “There was statistical significance between control and test groups if p < 0.05.” left out
# T2 sequence (P10635 whole entry): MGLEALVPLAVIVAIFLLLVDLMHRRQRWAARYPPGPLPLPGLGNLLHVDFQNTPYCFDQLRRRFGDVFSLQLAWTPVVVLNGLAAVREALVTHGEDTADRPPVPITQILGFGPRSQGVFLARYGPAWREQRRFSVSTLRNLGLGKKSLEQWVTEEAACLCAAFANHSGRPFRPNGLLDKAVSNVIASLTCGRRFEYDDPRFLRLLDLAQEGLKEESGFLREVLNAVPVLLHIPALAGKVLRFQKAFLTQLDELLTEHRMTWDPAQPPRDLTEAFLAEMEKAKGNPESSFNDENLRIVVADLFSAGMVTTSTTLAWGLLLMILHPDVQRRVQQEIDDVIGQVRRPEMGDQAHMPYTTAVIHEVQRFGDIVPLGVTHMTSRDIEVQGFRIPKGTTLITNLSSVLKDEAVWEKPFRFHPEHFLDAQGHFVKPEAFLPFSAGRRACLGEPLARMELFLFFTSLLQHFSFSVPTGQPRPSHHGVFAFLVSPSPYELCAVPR
# T1 sequence (P11712 whole entry): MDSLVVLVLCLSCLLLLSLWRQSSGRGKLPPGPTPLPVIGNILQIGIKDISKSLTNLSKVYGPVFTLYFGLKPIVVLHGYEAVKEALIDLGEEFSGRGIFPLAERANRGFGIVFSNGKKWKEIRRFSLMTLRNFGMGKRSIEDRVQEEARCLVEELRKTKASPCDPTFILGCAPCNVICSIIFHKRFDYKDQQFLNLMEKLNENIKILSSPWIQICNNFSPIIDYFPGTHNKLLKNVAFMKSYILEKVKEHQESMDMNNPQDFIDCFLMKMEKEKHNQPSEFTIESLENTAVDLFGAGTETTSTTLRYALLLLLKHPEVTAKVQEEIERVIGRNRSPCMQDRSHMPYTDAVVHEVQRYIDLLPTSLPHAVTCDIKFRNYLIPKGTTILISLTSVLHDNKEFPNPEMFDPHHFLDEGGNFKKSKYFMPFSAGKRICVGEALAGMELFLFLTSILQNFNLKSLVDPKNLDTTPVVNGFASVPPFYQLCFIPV
compound,measurement,setting,value
"CC1=CC(=O)c2c(O)cccc2C1=O [plumbagin, 5-hydroxy-2-methyl-1,4-naphthoquinone]",IC50,[1],10.9 µM
same,Ki,[1],2.16 µM
same,Type of inhibition,[1],mixed-type
same,αKi,"[1]; HLMs, secondary plot of y-intercepts, tolbutamide 5-40 μM",1.46 µM
same,α,"[1]; human, 20 min, pH 7.4",1.48
same,IC50,[2],10.2 µM
same,Type of inhibition,[2],mixed-type
same,Ki,"[2]; HLMs, secondary Lineweaver-Burk plot, dextromethorphan 1.25-10 μM",1.46 µM
same,α,"[2]; human, 20 min, pH 7.4",0.66
same,αKi,"[2]; human, 20 min, pH 7.4",2.22 µM
same,IC50,[3],5.86 µM
same,Ki,[3],9.93 µM
same,Type of inhibition,[3],competitive
